From patent US12577248B2, “Substituted [1,2,4]triazolo[1,5-a]pyrazines as spleen tyrosine kinase inhibitors” (NANJING RUIJIE PHARMA CO., LTD., priority 2020, dated 2026) come the findings set out here.

The target of one assay is T1, Ba/F3-TEL-SYK cells (Homo sapiens, UniProt P43405).
T1 construct: fused on or other part: N-terminal part of TEL (ETV6) with its oligomerising PNT/SAM domain, fused before the SYK part that carries the kinase domain; P41212 (Transcription factor ETV6)
Description: Ba/F3-TEL-SYK cell-based assay (CellTiter-Glo proliferation). Particulars: 72 hr, read-out: BaF3 Cell assay IC50. The protocol:
CellTiter-Glo® Luminescent Cell Viability Assay was used to determine the number of viable cells in culture based on quantitation of the ATP present, as an indicator of metabolically active cells. The assay was performed in the following steps: First, the testing compounds were dissolved in DMSO to make a stock solution. The stocks (10 mM) were then diluted to varying concentrations: […], 0.305 and 0.102 μM. An aliquot of 0.2 μl of diluted compounds were added to the 384 well assay plate. Second, added 40 μl of cell suspension with 800 Ba/F3-TEL-SYK cells into each well and incubated the plate at 37° C., 5% CO2 for 72 hr. Then, added 20 μl Cell Titer-Glo Reagent into each well of the cell culture plate. Mixed the contents for 2 min on an orbital shaker to lyse cells, and rest the plate at room temperature for 30 min. Finally, luminescence values were obtained using an Envision 2104 plate reader (PerkinElmer) and calculated the average data and Standard Deviation (SD) of DMSO and Reference (GS-9973, 1 μM) as high control and low control. To determine the IC50 value, fit the data using non-linear regression equation.
For orientation: Cellular ATP, detected with luciferase, serves as a proxy for viable cell number.

The target of another assay is SYK kinase (Homo sapiens, UniProt P43405). Description: SYK kinase assay (HTRF KinEASE-TK). In kind it is biochemical. Particulars: class symbols, read-out: Syk inhibition IC50. The method, then: A homogeneous time-resolved fluorescence (HTRF) assay was performed to assess the potential inhibitory effect of compounds on SYK kinase. The HTRF KinEASE-TK kit (Cisbio) was used. During the step, kinase will phosphorylate the substrate, and the resulting fluorescence signal is proportional to the phosphorylation level. The assay was performed in the following steps: First, the testing compounds were diluted 1:3 in succession in DMSO. The 1× kinase buffer contained 1 volume of 5× enzymatic buffer with 4 volumes of distilled water, 5 mM MgCl2, 1 mM MnCl2, and 1 mM DTT. The assays were assembled in 384 well plates (784075, Greiner) where 10 nl of compound solutions were added into each well, and the plates were centrifuged at 1000 g for 1 min. Then, 5 μl of 2×SYK in 1× kinase buffer were added to each well. The plates were centrifuged at 1000 g for 30 s and then incubated at room temperature for 10 min. The reaction was initiated by adding […] of premixed 2×TK-substrate-biotin and ATP mixture in 1× kinase buffer to the assay plates. The plates were centrifuged at 1000 g for 30 s and incubated at room temperature for 30 min. Phosphorylation was detected by adding 5 μl of 4×Sa-XL 665 in HTRF detection buffer into each well of the assay plates. The plates were centrifuged plates at 1000 g for 30 sec, and then incubated at room temperature for 1 h. Finally, the plates were read on an Envision 2104 plate reader (PerkinElmer) and the fluorescence signal was measured at 615 nm (Cryptate) and 665 nm (XL665).
A ratio (665/615 nm) was calculated for each well. The inhibition ratio was calculated as follow: […]
IC50 was calculated by fitting % Inhibition values and log of compound concentrations to nonlinear regression (dose response−variable slope) with GraphPad 6.0.
(TR-FRET usually uses a lanthanide donor and a delayed reading to cut background.)

The term IC50 denotes the point on the concentration scale where inhibition reaches its midpoint. On to `COc1cc(Nc2nc(-c3ccc4cn[nH]c4c3)cn3ncnc23)ccc1N1CC2(COC2)C1` [I60, 6-(1H-indazol-6-yl)-N-(3-methoxy-4-(2-oxa-6-azaspiro[3.3]heptan-6-yl)phenyl)-[1,2,4]triazolo[1,5-a]pyrazin-8-amine], for which the GI50 at Ba/F3-TEL-SYK cells was 50 to 500 nM. In addition, at SYK kinase, the concentration for half-maximal inhibition (IC50) was in the range of 50 to 500 nM.
Take `CC(C)N1C[C@@H]2C[C@@H]1CN2c1ccc(Nc2nc(-c3ccc4[nH]ncc4c3)cn3ncnc23)cc1` [I69, 6-(1H-indazol-5-yl)-N-(4-((1S,4R)-5-isopropyl-2,5-diazabicyclo[2.2.1]heptan-2-yl)phenyl)-[1,2,4]triazolo[1,5-a]pyrazin-8-amine]: at Ba/F3-TEL-SYK cells, the GI50 fell in the range of 500 to 5000 nM. Besides, the IC50 on SYK kinase lay in the range of 50 to 500 nM.
Take `COCCN1CCN(c2ccc(Nc3nc(-c4ccc5cn[nH]c5c4)cn4ncnc34)cc2OC)CC1` [I18, 6-(1H-indazol-6-yl)-N-(3-methoxy-4-(4-(2-methoxyethyl)piperazin-1-yl)phenyl)-[1,2,4]triazolo[1,5-a]pyrazin-8-amine]: the GI50 at Ba/F3-TEL-SYK cells is ≤ 50 nM. Moreover, the IC50 at SYK kinase was ≤ 50 nM.
With `O=C(O)c1ccc(NC(=O)c2cccc(-c3cn4ncnc4c(Nc4ccc(N5CCOCC5)cc4)n3)c2)cc1` [I7, 4-(3-(8-((4-morpholinophenyl)amino)-[1,2,4]triazolo[1,5-a]pyrazin-6-yl)benzamido)benzoic acid], on Ba/F3-TEL-SYK cells, the GI50 was > 5000 nM. In addition, the IC50 on SYK kinase was ≤ 50 nM.
Taken in the same sequence, the figures for `COc1cc(Nc2nc(-c3ccc4c(c3)OCC(=O)N4)cn3ncnc23)ccc1N1CCOCC1` [I28, 7-(8-((3-methoxy-4-morpholinophenyl)amino)-[1,2,4]triazolo[1,5-a]pyrazin-6-yl)-2H-benzo[b][1,4]oxazin-3(4H)-one] were 50 to 500 nM and ≤ 50 nM.
Regarding `Nc1cncc(-c2cn3ncnc3c(Nc3ccc(N4CCN(C5COC5)CC4)cc3)n2)n1` [I55, 6-(6-aminopyrazin-2-yl)-N-(4-(4-(oxetan-3-yl)piperazin-1-yl)phenyl)-[1,2,4]triazolo[1,5-a]pyrazin-8-amine], the GI50 at Ba/F3-TEL-SYK cells lay in the range of 500 to 5000 nM. Moreover, the IC50 at SYK kinase is ≤ 50 nM.
In the case of `CC(C)Oc1cc(Nc2nc(-c3ccc4cc[nH]c4c3)cn3ncnc23)ccc1N1CC2CC1CN2C1COC1` (stereo not drawn) [I81, 6-(1H-indol-6-yl)-N-(3-isopropoxy-4-(5-(oxetan-3-yl)-2,5-diazabicyclo[2.2.1]heptan-2-yl)phenyl)-[1,2,4]triazolo[1,5-a]pyrazin-8-amine], the GI50 at Ba/F3-TEL-SYK cells lay within 500 to 5000 nM. For the same molecule, at SYK kinase, the IC50 is 50 to 500 nM.
For `FC(F)Oc1cc(Nc2nc(-c3ccc4cc[nH]c4c3)cn3ncnc23)ccc1N1CC2CC1CN2C1COC1` (stereo not drawn) [I78, N-(3-(difluoromethoxy)-4-(5-(oxetan-3-yl)-2,5-diazabicyclo[2.2.1]heptan-2-yl)phenyl)-6-(1H-indol-6-yl)-[1,2,4]triazolo[1,5-a]pyrazin-8-amine], the GI50 at Ba/F3-TEL-SYK cells lay in the range of 500 to 5000 nM. Besides, on SYK kinase, the IC50 was ≤ 50 nM.
In the case of `O=S1(=O)CCN(c2ccc(Nc3nc(-c4ccc5cn[nH]c5c4)cn4ncnc34)cc2)CC1` [I25, 4-(4-((6-(1H-indazol-6-yl)-[1,2,4]triazolo[1,5-a]pyrazin-8-yl)amino)phenyl)thiomorpholine 1,1-dioxide], the GI50 on Ba/F3-TEL-SYK cells lay within 50 to 500 nM. Moreover, the IC50 at SYK kinase was ≤ 50 nM.
Turning to `c1nc2c(Nc3ccc(N4CC5CC4CN5C4COC4)cc3)nc(-c3ccc4cc[nH]c4c3)cn2n1` (stereo not drawn) [I82, 6-(1H-indol-6-yl)-N-(4-(5-(oxetan-3-yl)-2,5-diazabicyclo[2.2.1]heptan-2-yl)phenyl)-[1,2,4]triazolo[1,5-a]pyrazin-8-amine], the GI50 at Ba/F3-TEL-SYK cells lay within 500 to 5000 nM. Moreover, the IC50 at SYK kinase is ≤ 50 nM.
In the same order, the values of `FC(F)Oc1cc(Nc2nc(-c3ccc4cn[nH]c4c3)cn3ncnc23)ccc1N1CCOCC1` [I21, N-(3-(difluoromethoxy)-4-morpholinophenyl)-6-(1H-indazol-6-yl)-[1,2,4]triazolo[1,5-a]pyrazin-8-amine] are 50 to 500 nM and ≤ 50 nM.
On to `c1nc2c(Nc3ccc(N4CCC5(COC5)C4)cc3)nc(-c3ccc4cc[nH]c4c3)cn2n1` [I64, N-(4-(2-oxa-6-azaspiro[3.4]octan-6-yl)phenyl)-6-(1H-indol-6-yl)-[1,2,4]triazolo[1,5-a]pyrazin-8-amine], for which the IC50 at SYK kinase was > 5000 nM.
The same measure, in the same setting: as for `COc1cc(Nc2nc(-c3ccc4cn[nH]c4c3)cn3ncnc23)ccc1N1CCN(CCO)CC1` [I15, 2-(4-(4-((6-(1H-indazol-6-yl)-[1,2,4]triazolo[1,5-a]pyrazin-8-yl)amino)-2-methoxyphenyl)piperazin-1-yl)ethan-1-ol], the figure is ≤ 50 nM.
With `c1nc2c(Nc3ccc(N4CC5CC4CN5C4COC4)c(OC4CC4)c3)nc(-c3ccc4cc[nH]c4c3)cn2n1` (stereo not drawn) [I80, N-(3-cyclopropoxy-4-(5-(oxetan-3-yl)-2,5-diazabicyclo[2.2.1]heptan-2-yl)phenyl)-6-(1H-indol-6-yl)-[1,2,4]triazolo[1,5-a]pyrazin-8-amine], the 50% inhibitory concentration (IC50) on SYK kinase was 500 to 5000 nM.
Consider `COc1cc(Nc2nc(-c3cnc4c(c3)OC(C)(C)C(=O)N4)cn3ncnc23)cc(OC)c1OC` [I35, 2,2-dimethyl-7-(8-((3,4,5-trimethoxyphenyl)amino)-[1,2,4]triazolo[1,5-a]pyrazin-6-yl)-2H-pyrido[3,2-b][1,4]oxazin-3(4H)-one], for which, at SYK kinase, the IC50 is > 5000 nM.
The same measure, in the same setting: as for `CN1CCN(c2ccc(Nc3nc(-c4ccc5cn[nH]c5c4)cn4ncnc34)cc2)CC1` [I11, 6-(1H-indazol-6-yl)-N-(4-(4-methylpiperazin-1-yl)phenyl)-[1,2,4]triazolo[1,5-a]pyrazin-8-amine], the figure is ≤ 50 nM.
Still for that read-out and setting: the same measure for `COc1cc(Nc2nc(-c3ccc4c(F)n[nH]c4c3)cn3cnnc23)ccc1N1CCOCC1` [I44, 6-(3-fluoro-1H-indazol-6-yl)-N-(3-methoxy-4-morpholinophenyl)-[1,2,4]triazolo[4,3-a]pyrazin-8-amine]: > 5000 nM; for `FC(F)(F)Oc1cc(Nc2nc(-c3ccc4cn[nH]c4c3)cn3ncnc23)ccc1N1CCOCC1` [I20, 6-(1H-indazol-6-yl)-N-(4-morpholino-3-(trifluoromethoxy)phenyl)-[1,2,4]triazolo[1,5-a]pyrazin-8-amine]: 50 to 500 nM; for `NC(=O)c1ccc(-c2cn3ncnc3c(Nc3ccc(N4CCOCC4)cc3)n2)cc1` [I5, 4-(8-((4-morpholinophenyl)amino)-[1,2,4]triazolo[1,5-a]pyrazin-6-yl)benzamide]: 50 to 500 nM.
Same read-out and setting: the same measure for `c1cc(N2CCOCC2)ncc1Nc1nc(-c2ccc3cn[nH]c3c2)cn2cnnc12` [I43, 6-(1H-indazol-6-yl)-N-(6-morpholinopyridin-3-yl)-[1,2,4]triazolo[4,3-a]pyrazin-8-amine]: > 5000 nM; for `Clc1cc(Nc2nc(-c3ccc4cn[nH]c4c3)cn3cnnc23)ccc1N1CCOCC1` [I41, N-(3-chloro-4-morpholinophenyl)-6-(1H-indazol-6-yl)-[1,2,4]triazolo[4,3-a]pyrazin-8-amine]: > 5000 nM; for `COc1ccc(Nc2nc(-c3cnc4c(c3)OC(C)(C)C(=O)N4)cn3ncnc23)cc1OC` [I37, 7-(8-((3,4-dimethoxyphenyl)amino)-[1,2,4]triazolo[1,5-a]pyrazin-6-yl)-2,2-dimethyl-2H-pyrido[3,2-b][1,4]oxazin-3(4H)-one]: 50 to 500 nM.
For the molecule `COc1cc(Nc2nc(-c3ccc4cn[nH]c4c3)cn3ncnc23)ccc1N1CCN(C2CC2)CC1` [I19, N-(4-(4-cyclopropylpiperazin-1-yl)-3-methoxyphenyl)-6-(1H-indazol-6-yl)-[1,2,4]triazolo[1,5-a]pyrazin-8-amine], on SYK kinase, the IC50 is ≤ 50 nM.
In the case of `Fc1n[nH]c2cc(-c3cn4cnnc4c(Nc4ccc(N5CCOCC5)cc4)n3)ccc12` [I45, 6-(3-fluoro-1H-indazol-6-yl)-N-(4-morpholinophenyl)-[1,2,4]triazolo[4,3-a]pyrazin-8-amine], on SYK kinase, the IC50 is > 5000 nM.
As to `COc1cc(Nc2nc(-c3cnc4c(c3)OCC(=O)N4)cn3ncnc23)ccc1N1CCOCC1` [I30, 7-(8-((3-methoxy-4-morpholinophenyl)amino)-[1,2,4]triazolo[1,5-a]pyrazin-6-yl)-2H-pyrido[3,2-b][1,4]oxazin-3(4H)-one], at SYK kinase, the IC50 lay within 50 to 500 nM.
